From PMC4131461, “Antiviral Action of Synthetic Stigmasterol Derivatives on Herpes Simplex Virus Replication in Nervous Cells In Vitro” (BioMed Research International, 2014)

What was measured:
[1] = MTT cytotoxicity assay in SH-SY5Y cells; type: cell-based; details: human, SH-SY5Y cells (confluent nongrowing monolayers), 24 h incubation at 37°C
Protocol: (§1) Cell viability in the presence of different concentration of the compound was determined using the MTT assay. The absorbance of each well was measured on Eurogenetics MPR-A 4i microplate reader using a test wavelength of 570 nm and a reference wavelength of 630 nm. The CC50 was defined as the concentration of the compound that caused a 50% reduction in absorbance.
(§2) Fifty percent cytotoxic concentration (CC50) for PC-12, Neuro-2a, and SH-SY5Y cells was determined. Compounds 1 and 2 were added to confluent nongrowing cells in concentrations ranging from 1 to 144 μM and from 1 to 129 μM, respectively, and, after 24 h incubation at 37°C, a MTT colorimetric assay was performed.
(§3) Figure 2 Cytotoxic effect of compounds 1 and 2 in three nervous cell lines. (a) PC-12, (b) Neuro-2a, and (c) SH-SY5Y cells monolayers were incubated in the presence of different concentrations of compounds 1 and 2. After 24 h of incubation at 37°C cell viability was determined by the MTT assay. The CC50 was defined as the concentration of the compound that caused a 50% reduction in cell viability. Data are mean values from four separate experiments.

[2] = MTT cytotoxicity assay in Neuro-2a cells; type: cell-based, Murine; details: mouse, Neuro-2a cells (confluent nongrowing monolayers), 24 h incubation at 37°C
Protocol: as §1, §2, §3

[3] = MTT cytotoxicity assay in PC-12 cells; type: cell-based; details: rat, PC-12 cells (confluent nongrowing monolayers), 24 h incubation at 37°C
Protocol: as §1, §2, §3

[4] = tested on: HSV-1 Cgal; test: HSV-1 Cgal virus yield reduction in nervous cell lines (plaque assay); type: cell-based, herpes simplex virus type 1; details: regardless of the virus strain used (KOS wt or Cgal); PC-12, Neuro-2a, SH-SY5Y cells; 10 μM compound 1 / 5 μM compound 2, 24 h
Protocol: (§4) Cells grown in 24-well plates were infected with HSV-1 KOS and, after virus adsorption, treated or not with the compounds. After 24 h of incubation at 37°C, supernatants were collected and titrated in Vero cells. Briefly, Vero cells grown in 24-well plates were infected with serial 10-fold dilutions of viral yields and incubated for 1 h at 37°C. Residual inocula were replaced by maintenance medium with 0.7% of methylcellulose. After 72 h of incubation at 37°C, cells were fixed with formaldehyde 10% and stained with Crystal Violet, and plaque forming units were counted.
(§5) Cells grown in coverslips inside 24-well plates were infected with HSV-1 Cgal. After adsorption, inocula were eliminated and cells were covered with MEM 1.5%. At 24 h after infection (p.i.), supernatants were harvested and stored at −70°C for titration, and cells were stained in situ for β-gal. Coverslips were mounted, observed with an Olympus BX61 microscope, and photographed.
Figure 3 Effect of compounds 1 and 2 on HSV-1 virus yield reduction. (a) PC-12, (b) Neuro-2a, and (c) SH-SY5Y cells were infected with HSV-1 KOS (black bars) and HSV-1 Cgal (grey bars) and incubated for 1 h at 37°C. Then, cells were covered with DMEM/F12 2% or media containing 10 μM of compound 1 and 5 μM of compound 2. After 24 h supernatants were harvested and viral titres were determined by plaque assay. […]

[5] = tested on: HSV-1 Cgal; test: HSV-1 Cgal propagation, in situ beta-gal staining; type: cell-based, herpes simplex virus type 1; details: PC-12, Neuro-2a, SH-SY5Y cells, m.o.i. 1, 10 μM of 1 / 5 μM of 2, 24 h
Protocol: as §5
We have previously reported that compounds 1 and 2 inhibit HSV-1 propagation in IOBA-NHC cells. To investigate the effect of both compounds on viral propagation, PC-12, Neuro-2a, and SH-SY5Y cells grown in coverslips inside 24-well plates were infected with HSV-1 Cgal (m.o.i. = 1) and, then, treated with control media, 10 μM of 1 and 5 μM of 2. After 24 h incubation at 37°C, cells were stained in situ for β-gal. […] Therefore, both compounds would prevent HSV-1 Cgal spreading in all nervous cell lines assayed when added after infection.
Figure 4 Effect of compounds 1 and 2 on HSV-1 propagation. (a) PC-12, (b) Neuro-2a, and (c) SH-SY5Y cells monolayers grown in coverslips inside 24-well plates were infected with HSV-1 Cgal and incubated for 1 h at 37°C. Then, cells were covered with DMEM/F12 2% or media containing 10 μM of compound 1 and 5 μM of compound 2. After incubation for 24 h, cells were stained in situ for β-gal. […]

[6] = tested on: IL-6; test: IL-6 secretion in HSV-1-infected Neuro-2a cells (ELISA); type: cell-based, Murine; details: HSV-1 KOS-infected Neuro-2a cells, 10 μM compound 1 / 5 μM compound 2, 24 h; for IL-6 levels, reduction: vs untreated infected cells; for IL-6 levels: infected control 659.6 ± 14.8
Protocol: (§6) Neuro-2a cells grown in 24-well plates were infected with HSV-1 at a multiplicity of infection (m.o.i.) of 1. After 24 h of incubation at 37°C cells supernatants were harvested and cytokines were quantified. Murine IL-6 and IFN-gamma were quantified by commercial ELISA sets (BD OptEIATM, Becton Dickinson, USA) according to manufacturer instructions.
(§7) On the other hand, compound 2 increases IL-6 levels in human epithelial cells infected with HSV-1 [12]. […] For that purpose, we used those supernatants in which the antiviral effect of compounds 1 and 2 was found (Figure 3(b)). IL-6 and IFN-γ secretion reached 659.6 ± 14.8 pg/mL and 154.7 ± 7.2 pg/mL in HSV-1 infected control cells, respectively. […] IFN-γ levels dropped to 72.3 ± 4.9 pg/mL (P < 0.006) (53.3%) and to 53 ± 4.2 pg/mL (P < 0.001) (65.7%) with respect to untreated infected cells after treatment with 1 and 2. Thus, compounds 1 and 2 might display an anti-inflammatory activity in HSV-1-infected Neuro-2a cells.

[7] = tested on: IFN-γ; test: IFN-gamma secretion in HSV-1-infected Neuro-2a cells (ELISA); type: cell-based, Murine; details: HSV-1 KOS-infected Neuro-2a cells, 10 μM compound 1 / 5 μM compound 2, 24 h; for IFN-γ levels: infected control 154.7 ± 7.2
Protocol: as §6, §7

[8] = tested on: TNF-α; parameters: method as in earlier work; details: compound 1: HSV-1-infected epithelial cells; compound 2: IOBA-NHC cells; Michelini, personal communication; cited from earlier work
[9] = tested on: IL-6; parameters: method as in earlier work; details: HSV-1-infected epithelial cells (IOBA-NHC and HCLE); Michelini, personal communication; cited from earlier work
[10] = tested on: glucocorticoid receptors (GR); parameters: method as in Michelini, personal communication; details: ref Michelini, personal communication; cited from earlier work
[11] = tested on: glucocorticoid receptors (GR); parameters: method as in Michelini, personal communication; details: ref Michelini, personal communication; cited from earlier work; remark: listed apart in the source
[12] = tested on: IOBA-NHC cells; details: cited from earlier work
[13] = tested on: HSV-1 KOS wt strain; test: HSV-1 KOS wt virus yield reduction in nervous cell lines (plaque assay); type: cell-based, herpes simplex virus type 1; details: SH-SY5Y cells, m.o.i. 1, 5 μM compound 2, 24 h
Protocol: as §4
Neuro-2a, PC-12, and SH-SY5Y cells grown in 24-well plates were infected with HSV-1 KOS wt strain at m.o.i. of 1. After 24 h of incubation at 37°C, supernatants were collected and titrated in Vero cells.
Figure 3 Effect of compounds 1 and 2 on HSV-1 virus yield reduction. (a) PC-12, (b) Neuro-2a, and (c) SH-SY5Y cells were infected with HSV-1 KOS (black bars) and HSV-1 Cgal (grey bars) and incubated for 1 h at 37°C. Then, cells were covered with DMEM/F12 2% or media containing 10 μM of compound 1 and 5 μM of compound 2. After 24 h supernatants were harvested and viral titres were determined by plaque assay. Bars show average of two replicates ± SD. *P < 0.05, with respect to untreated infected cells.

SMILES | CC50 at 24 h [1] | CC50 at 24 h [2] | CC50 at 24 h [3] | reduction in viral yields [4] | HSV-1 Cgal propagation (β-gal stained cells) [5] | IL-6 levels, reduction [6] | IL-6 levels [6] | IFN-γ levels, drop with respect to untreated infected cells [7] | IFN-γ levels [7] | effect on TNF-α levels [8] | effect on IL-6 levels [9] | binding to glucocorticoid receptors (GR) [10] | induction of glucocorticoid activity via GR activation [11] | CC50 [12] | inhibition of HSV-1 yield [13]
CC[C@@H](C(C)C)[C@H](O)[C@@H](O)[C@@H](C)[C@H]1CC[C@H]2[C@@H]3CCC4=CC(=O)CC[C@]4(C)[C@H]3CC[C@]12C [Compound 1, (22S,23S)-22,23-dihydroxystigmast-4-en-3-one] | 77.2 µM | 80.4 µM | > 144 µM | 1-2 log | only scattered stained cells | 46.2% | 355.4 ± 10.9 pg/mL | 53.3% | 72.3 ± 4.9 pg/mL | does not reduce | does not reduce | none of them was able to bind | none of them was able to | 71.2 µM | –
CC[C@@H](C(C)C)[C@H](O)[C@@H](O)[C@@H](C)[C@H]1CC[C@H]2[C@@H]3CC(=O)[C@@]4(O)C[C@@H](Br)CC[C@]4(C)[C@H]3CC[C@]12C [Compound 2, (22S,23S)-3β-bromo-5α,22,23-trihydroxystigmastan-6-one] | 70 µM | 65.2 µM | > 129 µM | 1-2 log | only scattered stained cells | 41.1% | 388.2 ± 11.4 pg/mL | 65.7% | 53 ± 4.2 pg/mL | inhibits | increases | none of them was able to bind | none of them was able to | > 277 µM | ~2 logs
